From patent US12564600B2, “System for enhancing therapeutic compliance of the anti-cancer compound E7766” (Eisai R&D Management Co., Ltd., priority 2019, dated 2026)
Values after ≈ are worked out from the molar mass of the structure shown. “Also recorded” adds a separate entry of the source.

How the values were obtained:
[1] = Physicochemical properties and ECCS classification of Compound 1
[2] = Pharmacokinetics and excretion in bile duct-cannulated rat, single IV dose; format: in vivo, Sprague Dawley rats; conditions: IV 1 mg/kg, Mean SD
Method: (§1) Male bile duct-cannulated beagle dogs or Sprague Dawley rats (n=3) were given a single intravenous (IV) dose of Compound 1. Plasma, urine and bile samples were collected from the dogs, and blood, urine, bile and feces samples were collected from rats up to 48 hours post-dose. Blood samples were kept on wet ice after collection until centrifuged for separation of plasma. Urine samples were collected at intervals 0 to 4, 4 to 8, 8 to 24, and 24 to 48 hours post-dose into collection tubes on wet ice. Bile samples were collected at intervals 0 to 4, 4 to 8, 8 to 24, and 24 to 48 hours post-dose into collection tubes cooled via an ice pack. Feces samples for rats were collected over 0 to 24 hour interval. All samples were transferred into properly labeled tubes and stored at −70° C. until pending shipment to the bioanalytical facility. All samples were analyzed using LC-MS/MS and the pharmacokinetic parameters of Compound 1 were determined with Phoenix WinNonlin using non-compartmental analysis.
(§2) Data are shown as Mean SD. NC indicates Not Collected.

[3] = Pharmacokinetics and excretion in bile duct-cannulated dog, single IV dose; format: in vivo, beagle dogs; conditions: IV 0.075 mg/kg, up to 48 h, Mean SD
Method: as §1, §2

[4] = system: sandwich-cultured human hepatocytes (SCHH); test: Hepatic uptake in sandwich-cultured human hepatocytes; format: in vitro ADME
Method: Hepatic uptake and hepatobiliary disposition of Compound 1 was evaluated in sandwich-cultured human hepatocytes (SCHH) prepared from one donor. For assessing hepatic uptake, Compound 1 was incubated for 1, 5, and 10 minutes and the solutions were collected and frozen at −80° C. until process for bioanalysis. The wells were then washed three times with ice cold Plus (+) Buffer and were frozen at −80° C. until processed for bioanalysis. Biliary excretion of compound 1 was assessed in SCHH utilizing B-CLEAR® Technology. Briefly, cell culture medium was removed, and hepatocytes were washed twice with warm Plus (+) or Minus (−) Buffer to maintain or disrupt tight junctions, respectively. The wash solutions were removed and replaced with fresh Plus (+) Buffer or Minus (−) Buffer. The hepatocytes were conditioned for 10 minutes at 37° C. The conditioning solutions were removed and replaced with dosing solutions for Compound 1. Following a 20 minute incubation, the solutions were collected and frozen at −80° C. until process for bioanalysis. The wells were then washed three times with ice cold Plus (+) Buffer. The plates were frozen at −80° C. until processed for bioanalysis. The biliary excretion index (BEI) was calculated according to following equation: […]

OATP1B1 = target: T1, OATP1B1 (Homo sapiens, UniProt Q9Y6L6); test: Uptake in HEK293 cells overexpressing OATP1B1; format: in vitro ADME
T1 construct: expressed in transfected cells; host or cells: HEK293-FT
T1 sequence (Q9Y6L6 1-691): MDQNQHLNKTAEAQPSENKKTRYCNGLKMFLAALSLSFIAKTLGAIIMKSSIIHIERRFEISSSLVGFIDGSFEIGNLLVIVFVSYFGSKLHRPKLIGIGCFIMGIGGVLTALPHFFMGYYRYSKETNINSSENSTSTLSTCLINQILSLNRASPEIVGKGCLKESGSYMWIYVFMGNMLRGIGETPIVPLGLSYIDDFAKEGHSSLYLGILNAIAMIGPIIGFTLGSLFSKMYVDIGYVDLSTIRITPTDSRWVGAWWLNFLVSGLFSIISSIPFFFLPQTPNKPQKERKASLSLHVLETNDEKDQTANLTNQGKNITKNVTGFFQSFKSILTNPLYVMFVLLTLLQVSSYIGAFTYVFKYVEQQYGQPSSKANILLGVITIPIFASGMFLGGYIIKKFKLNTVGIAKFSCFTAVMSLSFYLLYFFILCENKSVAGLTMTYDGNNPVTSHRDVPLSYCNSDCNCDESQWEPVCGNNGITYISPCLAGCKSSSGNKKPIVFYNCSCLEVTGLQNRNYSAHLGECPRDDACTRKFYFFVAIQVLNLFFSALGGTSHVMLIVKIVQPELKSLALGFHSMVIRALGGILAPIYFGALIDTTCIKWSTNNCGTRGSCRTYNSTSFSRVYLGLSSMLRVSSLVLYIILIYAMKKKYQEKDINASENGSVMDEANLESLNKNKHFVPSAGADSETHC
Method: TransportoCells™ (Corning, N.Y., USA) expressing OATP2B1, NTCP, and HEK293-FT cells stably transfected with the vector containing OATP1B1 cDNA or OATP1B3 cDNA or empty vector were grown in a Dulbecoo's modified Eagle's medium fortified with 10% fetal calf serum and 2 mmol/L sodium butyrate (for NTCP only) in a humidified incubator at 37° C. and 5% CO2. Cells were harvested at 90% confluence and then seeded in poly-D-lysine-coated 24-well 24 h prior to transporter assay. Cells were washed twice and pre-incubated with 200 μL of pre-warmed Krebs-Henseleit buffer. After pre-incubation, cells were incubated with 3 or 10 μmol L-1 of Compound 1 in presence or absence of 100 μmol L-1 of inhibitors (Rifamycin SV for OATP2B1, Troglitazone for NTCP, Rifamycin for OATP1B1 and OATP1B3). The transport reaction was terminated by aspirating the buffer from the wells at designated time. After washing three times with 200 μL of ice-cold Krebs-Henseleit buffer, the cells were lysed and the resulting cellular lysates were analyzed by LC-MS/MS.
Concentration-dependent uptake of Compound 1 via OATP1B1 and OATP1B3 were conducted with a concentration range of 0.25-100 μmol L-1 under linear uptake. All experiments were run in triplicates.

solubility [1]: 150 µM (≈ 112 µg/mL) | logD ([1]; read-out: measured Log D): 1.31 | pKa ([1]; read-out: measured pKa): 3.41 | concentration at which hepatic uptake is saturated ([4]; SCHH): > 1000 nM | dose proportionality of hepatic uptake ([4]; SCHH, 0.3 to 1 μM, 1 to 5 minutes of exposure): approximately dose-proportional | hepatic uptake at 4° C. relative to 37° C. ([4]; SCHH, incubation at 4° C.): < 7.7 % of 37 °C | mechanism of uptake in human hepatocytes ([4]; human hepatocytes): temperature-dependent active uptake | Jmax (pmol/min/million cells), OATP1B1 (OATP1B1; Simcyp input parameter, Table 3): 8.34 pmol/min/million cells
SMILES: O=[P@]1(S)OC[C@H]2O[C@@H]3[C@H](F)[C@@H]2O[P@](=O)(S)OC[C@H]2O[C@H]([C@H](F)[C@@H]2O1)n1cnc2c(ncnc21)NC/C=C/CNc1ncnc2c1ncn23 [Compound 1]
% Ae, feces ([2]; 0 to 24 h): 0.4 ± 0.2% | % Ae, urine ([2]; up to 48 h, 1 mg/kg): 13.7 ± 2.8% | % Ae, bile [3]: 87.9 ± 30.5% | inhibition of hepatocyte uptake by transporter inhibitors ([4]; human hepatocytes, Rifampin, tetraethylammonium): could be inhibited by Rifampin but not by tetraethylammonium | substrate of OATP1B1 (OATP1B1; HEK293 cells overexpressing human OATP1B1): responsible for hepatic uptake; also recorded: substrate
